# Assay results from PubChem BioAssay (NCI).
#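 The compound was tested at five concentrations on cells cultured in 96-well plates, with a 48-hour exposure period. GI50 is the concentration that inhibits growth by half. At the TGI there is no net growth.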
# What was measured:
# Test in all cases: inhibition of tumour cell growth, NCI panel, 48 h
# [1] = test system: NCI-H23 lung
# [2] = test system: SNB-19 CNS
# [3] = test system: UACC-257 melanoma
# [4] = test system: SF-539 CNS
# [5] = test system: OVCAR-4 ovarian
# [6] = test system: UO-31 renal
# [7] = test system: HCT-116 colon
# [8] = test system: LOX IMVI melanoma
# [9] = test system: SK-MEL-28 melanoma
# [10] = test system: SW-620 colon
# [11] = test system: TK-10 renal
# [12] = test system: SK-OV-3 ovarian
# [13] = test system: M19-MEL melanoma
# [14] = test system: NCI-H226 lung
# [15] = test system: SF-268 CNS
# [16] = test system: COLO 205 colon
# [17] = test system: ACHN renal
# [18] = test system: SN12C renal
# [19] = test system: HCC-2998 colon
# [20] = test system: HCT-15 colon
# [21] = test system: HOP-18 NSCLC
# [22] = test system: LXFL 529 NSCLC
# [23] = test system: A549 NSCLC
# [24] = test system: RXF 393 renal
# [25] = test system: MOLT-4 leukemia
# [26] = test system: SK-MEL-5 melanoma
# [27] = test system: 786-0 renal
# [28] = test system: HL-60(TB) leukemia
# [29] = test system: NCI-H460 lung
# [30] = test system: OVCAR-8 ovarian
# [31] = test system: SF-295 CNS
# [32] = test system: UACC-62 melanoma
# [33] = test system: MALME-3M melanoma
# [34] = test system: SR leukemia
# [35] = test system: CAKI-1 renal
# [36] = test system: KM20L2 colon
# [37] = test system: RPMI-8226 leukemia
# [38] = test system: IGROV1 ovarian
# [39] = test system: U251 CNS
# [40] = test system: XF 498 CNS
# [41] = test system: M14 melanoma
# [42] = test system: OVCAR-3 ovarian
# [43] = test system: KM12 colon
# [44] = test system: K-562 leukemia
# [45] = test system: DLD-1 colon
# [46] = test system: HOP-62 NSCLC
# [47] = test system: RXF-631 renal
# [48] = test system: HT29 colon
# [49] = test system: SNB-75 CNS
# [50] = test system: SNB-78 CNS
# [51] = test system: OVCAR-5 ovarian
# [52] = test system: HOP-92 NSCLC
# [53] = test system: EKVX NSCLC
# [54] = test system: DMS 273 small cell lung
# [55] = test system: SK-MEL-2 melanoma
# [56] = test system: NCI-H522 lung
# [57] = test system: CCRF-CEM leukemia
structure (smiles),measurement,setting,value
C=CCC[CH2][Sn]([c]1ccccc1)([c]1ccccc1)[c]1ccccc1,GI50,[1],1.64 µM
same,TGI,[1],3.01 µM
same,GI50,[2],1.73 µM
same,TGI,[2],3.31 µM
same,GI50,[3],1.87 µM
same,TGI,[3],3.33 µM
same,GI50,[4],1.94 µM
same,TGI,[4],3.52 µM
same,GI50,[5],1.48 µM
same,TGI,[5],2.86 µM
same,GI50,[6],1.89 µM
same,TGI,[6],3.36 µM
same,GI50,[7],0.977 µM
same,TGI,[7],2.15 µM
same,GI50,[8],1.16 µM
same,TGI,[8],2.38 µM
same,GI50,[9],1.84 µM
same,TGI,[9],3.47 µM
same,GI50,[10],0.856 µM
same,TGI,[10],2.12 µM
same,GI50,[11],1.6 µM
same,TGI,[11],3.09 µM
same,GI50,[12],1.89 µM
same,TGI,[12],3.57 µM
same,GI50,[13],2.17 µM
same,TGI,[13],4.49 µM
same,GI50,[14],1.74 µM
same,TGI,[14],3.33 µM
same,GI50,[15],1.26 µM
same,TGI,[15],2.71 µM
same,GI50,[16],1.64 µM
same,TGI,[16],3 µM
same,GI50,[17],1.66 µM
same,TGI,[17],3.07 µM
same,GI50,[18],1.57 µM
same,TGI,[18],2.95 µM
same,GI50,[19],1.69 µM
same,TGI,[19],3.11 µM
same,GI50,[20],1.52 µM
same,TGI,[20],3.07 µM
same,GI50,[21],2.59 µM
same,TGI,[21],4.51 µM
same,GI50,[22],1.35 µM
same,TGI,[22],2.63 µM
same,GI50,[23],1.71 µM
same,TGI,[23],3.54 µM
same,GI50,[24],1.34 µM
same,TGI,[24],2.66 µM
same,GI50,[25],1.26 µM
same,TGI,[25],5.27 µM
same,GI50,[26],1.65 µM
same,TGI,[26],3.02 µM
same,GI50,[27],1.54 µM
same,TGI,[27],2.87 µM
same,GI50,[28],5.29 µM
same,TGI,[28],> 100 µM
same,GI50,[29],1.61 µM
same,TGI,[29],3.06 µM
same,GI50,[30],1.78 µM
same,TGI,[30],3.28 µM
same,GI50,[31],1.99 µM
same,TGI,[31],3.6 µM
same,GI50,[32],1.11 µM
same,TGI,[32],2.36 µM
same,GI50,[33],1.56 µM
same,TGI,[33],3.05 µM
same,GI50,[34],0.572 µM
same,TGI,[34],5.28 µM
same,GI50,[35],1.52 µM
same,TGI,[35],3.18 µM
same,GI50,[36],1.83 µM
same,TGI,[36],3.36 µM
same,GI50,[37],1.65 µM
same,TGI,[37],4.37 µM
same,GI50,[38],1.77 µM
same,TGI,[38],3.35 µM
same,GI50,[39],1.65 µM
same,TGI,[39],3.01 µM
same,GI50,[40],2.08 µM
same,TGI,[40],3.55 µM
same,GI50,[41],1.62 µM
same,TGI,[41],3.09 µM
same,GI50,[42],1.54 µM
same,TGI,[42],2.91 µM
same,GI50,[43],1.31 µM
same,TGI,[43],2.58 µM
same,GI50,[44],2.15 µM
same,TGI,[44],16.5 µM
same,GI50,[45],1.51 µM
same,TGI,[45],2.98 µM
same,GI50,[46],2.25 µM
same,TGI,[46],3.99 µM
same,GI50,[47],1.85 µM
same,TGI,[47],3.53 µM
same,GI50,[48],2.25 µM
same,TGI,[48],4.73 µM
same,GI50,[49],2.49 µM
same,TGI,[49],6.88 µM
same,GI50,[50],1.73 µM
same,TGI,[50],4.83 µM
same,GI50,[51],1.12 µM
same,TGI,[51],2.35 µM
same,GI50,[52],1.78 µM
same,TGI,[52],3.38 µM
same,GI50,[53],1.89 µM
same,TGI,[53],3.97 µM
same,GI50,[54],1.58 µM
same,TGI,[54],3.03 µM
same,GI50,[55],1.76 µM
same,TGI,[55],3.2 µM
same,GI50,[56],1.19 µM
same,TGI,[56],2.49 µM
same,GI50,[57],1.01 µM
same,TGI,[57],4.37 µM
